The text below walks through data of patent US11390604B2 (Hoffmann-La Roche Inc., priority 2019, dated 2022).

Counter-ions that a name gives are not always drawn.

The IC90 is the concentration needed for an effect of 90%.

The subject of the assay is Acinetobacter baumannii ATCC 17961. As to the kind of experiment: Antimicrobial susceptibility testing: 90% growth inhibitory concentration (IC90) determination. In kind it is cell-based. Particulars: ATCC17961, Acinetobacter baumannii ATCC 17961, Iso-Sensitest broth, read-out: ATCC 17961 IC90. Put shortly: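 Broth microdilution in Iso-Sensitest medium, twofold series (e.g. 50 to 0.097 μM final), ~5×10^5 CFU/ml inoculum, 35±2 °C. OD600 read every 20 min over 16 h. IC90 derived from growth inhibition during logarithmic phase.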

Take `Cn1c(-c2cn(C3CC3)nc2C(F)(F)F)cnc1C(=O)Nc1ccc(C(=O)N2CCN(C(=O)[C@H]3CC[C@H](N)CC3)CC2)c(Cl)c1` [Example 231, N-[4-[4-(4-aminocyclohexanecarbonyl)piper-azine-1-carbonyl]-3-chlorophenyl]-5-[1-cyclopropyl-3-(trifluoromethyl)pyrazol-4-yl]-1-methylimidazole-2-carboxamide;hydrochloride]: the 90% effect concentration (IC90) came to 0.267 µM. As for `Cn1c(-c2cn(C3CC3)nc2C(F)(F)F)cnc1C(=O)Nc1ccc(C(=O)N2CCN(C(=O)N[C@@H]3CC[C@@H](N)C3)CC2)c(Cl)c1` [Example 232, N-((1R,3R)-3-aminocyclopentyl)-4-(2-chloro-4-(5-(1-cyclopropyl-3-(trifluoromethyl)-1H-pyrazol-4-yl)-1-methyl-1H-imidazole-2-carboxamido)benzoyl)piperazine-1-carboxamide formate], the figure is 0.267 µM; as for `Cn1c(-c2cn(C3CC3)nc2C(F)(F)F)cnc1C(=O)Nc1ccc(C(=O)N2CCN(C(=O)NC3CNC3)CC2)c(Cl)c1` [Example 233, N-(azetidin-3-yl)-4-[2-chloro-4-[[5-[1-cyclopropyl-3-(trifluoromethyl)pyrazol-4-yl]-1-methyl-imidazole-2-carbonyl]amino]benzoyl]pipera-zine-1-carboxamide; formic acid], 0.267 µM; as for `C=C(C)Cn1cc(-c2cnc(C(=O)Nc3ccc(C(=O)N[C@H]4C[C@@H](N)C4)c(Cl)c3)n2C)c(C(F)(F)F)n1` [Example 234, rac-N-(4-(((1s,3s)-3-aminocyclobutyl)carbamoyl)-3-chlorophenyl)-1-methyl-5-(1-(2-methylallyl)-3-(trifluoromethyl)-1H-pyrazol-4-yl)-1H-imidazole-2-carboxamide hydrochloride], 0.268 µM. Under `Cn1c(-c2cn(CC(F)F)nc2C(F)(F)F)cnc1C(=O)Nc1ccc(C(=O)NC2C3CN(C(=O)C4CCNCC4)CC32)c(Cl)c1` (stereo not shown) [Example 235, N-(3-chloro-4-((3-(piperidine-4-carbonyl)-3-azabicyclo[3.1.0]hexan-6-yl)carbamoyl)phenyl)-5-(1-(2,2-difluoroethyl)-3-(trifluoromethyl)-1H-pyrazol-4-yl)-1-methyl-1H-imidazole-2-carboxamide formate] stands 0.268 µM. In the case of `Cn1c(-c2cn(C3CC3)nc2C(F)(F)F)cnc1C(=O)Nc1ccc(C(=O)N2CCN(C(=O)NC3CCNC3)CC2)c(Cl)c1` (stereo not shown) [Example 236, 4-[2-chloro-4-[[5-[1-cyclopropyl-3-(trifluoromethyl)pyrazol-4-yl]-1-methylimidazole-2-carbonyl]amino]benzoyl]-N-pyrrolidin-3-ylpiperazine-1-carboxamide;formic acid], the 90% effect concentration (IC90) came out at 0.27 µM.

In the case of `CCn1cc(-c2cnc(C(=O)Nc3ccc(C(=O)N4CCC(CCN)CC4)c(Cl)c3)n2C)c(C(F)(F)F)n1` [Example 239, N-(4-(4-(2-aminoethyl)piperidine-1-carbonyl)-3-chlorophenyl)-5-(1-ethyl-3-(trifluoromethyl)-1H-pyrazol-4-yl)-1-methyl-1H-imidazole-2-carboxamide hydrochloride], the IC90 turned out to be 0.273 µM. Turning to `Cn1c(-c2cn(C3CC3)nc2C(F)(F)F)cnc1C(=O)Nc1ccc(C(=O)N2CCN(C(=O)N[C@H]3C[C@@H](N)C3)CC2)c(Cl)c1` [Example 240, rac-N-((1s,3s)-3-aminocyclobutyl)-4-(2-chloro-4-(5-(1-cyclopropyl-3-(trifluoromethyl)-1H-pyrazol-4-yl)-1-methyl-1H-imidazole-2-carboxamido)benzoyl)piperazine-1-carboxamide formate], the IC90 turned out to be 0.274 µM. As for `Cn1c(-c2cn(Cc3ccccc3)nc2C(F)(F)F)cnc1C(=O)Nc1ccc(C(=O)N2CCN(C(=O)C3CCNCC3)CC2)c(Cl)c1` [Example 241, 5-(1-benzyl-3-(trifluoromethyl)-1H-pyrazol-4-yl)-N-(3-chloro-4-(4-(piperidine-4-carbonyl)piperazine-1-carbonyl)phenyl)-1-methyl-1H-imidazole-2-carboxamide hydrochloride], the figure is 0.281 µM. Under `C#CCn1cc(-c2cnc(C(=O)Nc3ccc(C(=O)NCCOCCN)c(CC)c3)n2C)c(C(F)(F)F)n1` [Example 242, N-[4-[2-(2-aminoethoxy)ethylcarbamoyl]-3-ethyl-phenyl]-1-methyl-5-[1-prop-2-ynyl-3-(trifluoromethyl)pyrazol-4-yl]imidazole-2-carboxamide; formic acid] stands 0.283 µM; under `Cn1c(-c2cn(C3CC3)nc2C(F)(F)F)cnc1C(=O)Nc1ccc(C(=O)N2CCN(C(=O)[C@@H]3CCC[C@@H]3N)CC2)c(Cl)c1` [Example 243, N-(4-(4-((1R,2S)-2-aminocyclopentane-1-carbonyl)piperazine-1-carbonyl)-3-chlorophenyl)-5-(1-cyclopropyl-3-(trifluoromethyl)-1H-pyrazol-4-yl)-1-methyl-1H-imidazole-2-carboxamide hydrochloride], 0.286 µM; under `Cn1c(-c2cn(CC(F)F)nc2C(F)(F)F)cnc1C(=O)Nc1ccc(S(=O)(=O)N2CCNCC2)cc1` [Example 244, 5-(1-(2,2-difluoroethyl)-3-(trifluoromethyl)-1H-pyrazol-4-yl)-1-methyl-N-(4-(piperazin-1-ylsulfonyl)phenyl)-1H-imidazole-2-carboxamide hydrochloride], 0.287 µM.

In the case of `C#CCn1cc(-c2cnc(C(=O)Nc3ccc(C(=O)NC4C5CN(C(=O)C6CCNCC6)CC54)c(Cl)c3)n2C)c(C(F)(F)F)n1` (stereo not shown) [Example 245, N-(3-chloro-4-((3-(piperidine-4-carbonyl)-3-azabicyclo[3.1.0]hexan-6-yl)carbamoyl)phenyl)-1-methyl-5-(1-(prop-2-yn-1-yl)-3-(trifluoromethyl)-1H-pyrazol-4-yl)-1H-imidazole-2-carboxamide formate], the concentration for an effect of 90% (IC90) was determined as 0.288 µM. With `Cn1c(-c2cn(C3CC3)nc2C(F)(F)F)cnc1C(=O)Nc1ccc(C(=O)N2CCN(C(=O)C[C@H]3CCNC3)CC2)c(Cl)c1` [Example 246, (R)-N-(3-chloro-4-(4-(2-(pyrrolidin-3-yl)acetyl)piperazine-1-carbonyl)phenyl)-5-(1-cyclopropyl-3-(trifluoromethyl)-1H-pyrazol-4-yl)-1-methyl-1H-imidazole-2-carboxamide hydrochloride], the 90% effect concentration (IC90) came out at 0.293 µM. Under `Cn1c(-c2cn(C3CC3(F)F)nc2C(F)(F)F)cnc1C(=O)Nc1ccc(C(=O)NCCCCCN)c(Cl)c1` (stereo not shown) [Example 247, N-(4-((5-aminopentyl)carbamoyl)-3-chlorophenyl)-5-(1-(2,2-difluorocyclopropyl)-3-(trifluoromethyl)-1H-pyrazol-4-yl)-1-methyl-1H-imidazole-2-carboxamide] stands 0.295 µM; under `Cn1c(-c2cn(C3CC3(F)F)nc2C(F)(F)F)cnc1C(=O)Nc1ccc(C(=O)NC2[C@H]3CN(C(=O)NC(CN)CCl)C[C@@H]23)c(Cl)c1` (stereo partly drawn) [Example 248, cis-N-(1-amino-3-chloropropan-2-yl)-6-[[2-chloro-4-[[5-[1-(2,2-difluorocyclopropyl)-3-(trifluoromethyl)pyrazol-4-yl]-1-methylimidazole-2-carbonyl]amino]benzoyl]amino]-3-azabicyclo[3.1.0]hexane-3-carboxamide, formate salt], 0.297 µM; under `Cn1c(-c2cn(C3CC3)nc2C(F)(F)F)cnc1C(=O)Nc1ccc(C(=O)N2CCC3(CCNCC3)CC2)c(Cl)c1` [Example 249, N-(3-chloro-4-(3,9-diazaspiro[5.5]undecane-3-carbonyl)phenyl)-5-(1-cyclopropyl-3-(trifluoromethyl)-1H-pyrazol-4-yl)-1-methyl-1H-imidazole-2-carboxamide hydrochloride], 0.3 µM. For the compound `Cn1c(-c2cn(C3CC3)nc2C(F)(F)F)cnc1C(=O)Nc1ccc(C(=O)N2CCN(C(=O)[C@H]3CCCN3)CC2)c(Cl)c1` [Example 250, (R)-N-(3-chloro-4-(4-prolylpiperazine-1-carbonyl)phenyl)-5-(1-cyclopropyl-3-(trifluoromethyl)-1H-pyrazol-4-yl)-1-methyl-1H-imidazole-2-carboxamide hydrochloride], the IC90 was 0.302 µM. Consider `Cn1c(-c2cn(CCCl)nc2C(F)(F)F)cnc1C(=O)Nc1ccc(C(=O)N2CCN(C(=O)NC3CNC3)CC2)c(Cl)c1` [Example 251, N-(azetidin-3-yl)-4-[2-chloro-4-[[5-[1-(2-chloroethyl)-3-(trifluoromethyl)pyrazol-4-yl]-1-methyl-imidazole-2-carbonyl]amino]benzoyl]pipera-zine-1-carboxamide], for which the IC90 was 0.306 µM. As for `Cn1c(-c2cn(C3CC3)nc2C(F)(F)F)cnc1C(=O)Nc1ccc(C(=O)N2CCN(C(=O)CCN)CC2)c(Cl)c1` [Example 252, N-(4-(4-(3-aminopropanoyl)piperazine-1-carbonyl)-3-chlorophenyl)-5-(1-cyclopropyl-3-(trifluoromethyl)-1H-pyrazol-4-yl)-1-methyl-1H-imidazole-2-carboxamide hydrochloride], the figure is 0.308 µM; as for `Cn1c(-c2cn(CC#N)nc2C(F)(F)F)cnc1C(=O)Nc1ccc(C(=O)N[C@H]2C[C@@H](NC(=O)[C@@H]3CCNC3)C2)c(Cl)c1` [Example 253, N-[3-chloro-4-[[3-[[(3R)-pyrrolidine-3-carbonyl]amino]cyclobutyl]car-bamoyl]phenyl]-5-[1-(cyanomethyl)-3-(trifluoromethyl)pyrazol-4-yl]-1-methyl-imidazole-2-carboxamide; formic acid], 0.309 µM. Under `C=C(C)Cn1cc(-c2cnc(C(=O)Nc3ccc(C(=O)NCCCN)c(Cl)c3)n2C)c(C(F)(F)F)n1` [Example 255, N-(4-((3-aminopropyl)carbamoyl)-3-chlorophenyl)-1-methyl-5-(1-(2-methylallyl)-3-(trifluoromethyl)-1H-pyrazol-4-yl)-1H-imidazole-2-carboxamide tris(2,2,2-trifluoroacetate)] stands 0.312 µM.
